Measurements as given in the NIST ThermoML archive (doi:10.1016/j.jct.2010.04.013).

Assay: mn = molality of the nth substance listed, in mol/kg
Settings: 101 kPa, Liquid; for mass density: Vibrating tube method; for speed of sound: Pulse-echo method

O=S(=O)([O-])C(F)(F)F.[Na+] [sodium trifluoromethanesulfonate] + C[S+](C)[O-]
Settings	mass density, 293.15 K [kg/m3]	mass density, 298.15 K [kg/m3]	mass density, 303.15 K [kg/m3]	mass density, 313.15 K [kg/m3]	mass density, 323.15 K [kg/m3]	mass density, 333.15 K [kg/m3]	speed of sound, 298.15 K [m/s]
m1 = 0.02641	1102.59	1097.57	1092.55	1082.51	1072.47	1062.44	–
m1 = 0.0331	1103.2	1098.17	1093.52	1083.11	1073.08	1063.05	–
m1 = 0.04651	1104.41	1099.38	1094.37	1084.33	1074.31	1064.27	1482.7
m1 = 0.06041	1105.66	1100.64	1095.62	1085.59	1075.56	1065.53	1482.2
m1 = 0.0788	1107.34	1102.31	1097.29	1087.27	1077.24	1067.21	1481.6
m1 = 0.09603	1108.91	1103.88	1098.86	1088.84	1078.81	1068.79	1481
m1 = 0.1218	1111.26	1106.23	1101.22	1091.19	1081.17	1071.16	1480.1
m1 = 0.1568	1114.49	1109.45	1104.45	1094.42	1084.4	1074.39	1479
m1 = 0.1917	1117.71	1112.68	1107.66	1097.64	1087.62	1077.62	1477.6
m1 = 0.2205	1120.39	1115.36	1110.33	1100.32	1090.31	1080.3	1476.5
m1 = 0.2625	1124.33	1119.3	1114.27	1104.24	1094.22	1084.21	1475
m1 = 0.2925	–	–	–	–	–	–	1473.9

[O-][Cl+3]([O-])([O-])[O-].[O-][Cl+3]([O-])([O-])[O-].[Sr+2] [strontium perchlorate] + C[S+](C)[O-]
Settings	mass density, 293.15 K [kg/m3]	mass density, 298.15 K [kg/m3]	mass density, 303.15 K [kg/m3]	mass density, 313.15 K [kg/m3]	mass density, 323.15 K [kg/m3]	mass density, 333.15 K [kg/m3]	speed of sound, 298.15 K [m/s]
m1 = 0.02541	1105.84	1100.82	1095.81	1085.8	1075.79	1065.77	–
m1 = 0.03174	1107.23	1102.22	1097.22	1087.21	1077.21	1067.2	1485.7
m1 = 0.04183	1109.48	1104.48	1099.47	1089.48	1079.49	1069.48	1486.1
m1 = 0.05362	1112.12	1107.12	1102.12	1092.14	1082.16	1072.17	1486.7
m1 = 0.06535	1114.75	1109.75	1104.76	1094.79	1084.82	1074.85	1487.3
m1 = 0.08369	1118.88	1113.89	1108.92	1098.96	1089.01	1079.07	1488.2
m1 = 0.1061	1123.96	1118.98	1114.01	1104.08	1094.14	1084.22	1489.3
m1 = 0.1303	1129.53	1124.56	1119.6	1109.69	1099.79	1089.89	1490.4
m1 = 0.1512	1134.32	1129.36	1124.42	1114.52	1104.65	1094.78	1491.5
m1 = 0.1771	1140.37	1135.43	1130.49	1120.62	1110.77	1100.92	1492.6
m1 = 0.1981	1145.33	1140.39	1135.46	1125.62	1115.78	1105.96	1493.7

C[S+](C)[O-] [dimethyl sulfoxide] + O=S(=O)([O-])C(F)(F)F.O=S(=O)([O-])C(F)(F)F.[Be+2]
m2 = 0
Settings	mass density [kg/m3]
293.15 K	1100.21
298.15 K	1095.18
303.15 K	1090.16
313.15 K	1080.11
323.15 K	1070.07
333.15 K	1060.03
